Laboratory results taken from patent US8895558B2, “Arylpiperazine-containing pyrrole 3-carboxamide derivatives for treating depressive disorders” (Green Cross Corporation, priority 2008, dated 2014).
Counter-ions that a name gives are not always drawn.

Tests used:
[1] = biological target: T1, human recombinant serotonin 5-HT2A receptor (Homo sapiens, UniProt P28223); assay: Binding affinity for serotonin 5-HT2A receptor ([3H]Ketanserin); conditions: CHO-K1 expressed receptor, 1 nM [3H]Ketanserin
T1 construct: purchased PerkinElmer Life and Analytical Sciences, USA; host or cells: CHO-K1
T1 sequence (P28223 whole entry): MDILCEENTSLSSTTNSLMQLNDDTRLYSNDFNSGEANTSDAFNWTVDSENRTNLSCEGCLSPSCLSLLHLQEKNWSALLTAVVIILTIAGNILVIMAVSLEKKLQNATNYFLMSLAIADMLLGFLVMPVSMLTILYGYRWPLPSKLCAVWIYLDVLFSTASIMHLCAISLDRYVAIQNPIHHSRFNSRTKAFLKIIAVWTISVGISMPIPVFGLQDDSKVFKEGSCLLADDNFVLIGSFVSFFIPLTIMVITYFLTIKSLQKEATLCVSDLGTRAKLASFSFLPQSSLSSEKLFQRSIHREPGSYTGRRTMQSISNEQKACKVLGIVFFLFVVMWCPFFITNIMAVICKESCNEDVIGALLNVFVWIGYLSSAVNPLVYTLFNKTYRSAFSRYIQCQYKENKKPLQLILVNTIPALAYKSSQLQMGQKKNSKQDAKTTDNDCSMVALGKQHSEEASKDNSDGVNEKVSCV
Method: Receptor binding affinities of the compounds for serotonin receptors were measured by the method described in the literature [Park W K et al., Pharmacol Biochem Behav. 2005, 82(2), 361-372].
For serotonin 5-HT2A binding, an aliquot of human recombinant serotonin 5-HT2A receptor (PerkinElmer Life and Analytical Sciences, USA) expressed in CHO-K1 cells (5 ug/well) and 1 nM [^3H]Ketanserin (PerkinElmer) were used in the presence of mianserin (20 uM) as nonspecific. The reaction mixture was incubated for 60 min at 27 using 50 mM Tris-HCl (pH 7.4) buffer containing 4 mM CaCl2 and 0.1% ascorbic acid, and harvested through filtermate A glass fiber filter (Wallac, Finland) presoaked in 0.5% polyethyleneimine (PEI) by microbeta filtermate-96 harvester (PerkinElmer) to terminate the reaction, and then washed with ice cold 50 mM Tris-HCl buffer solution (pH 7.4). The filter was then covered with MeltiLex, sealed in a sample bag, dried in an oven. The radioactivity retained in the filter was finally counted using MicroBeta Plus (Wallac).
(§1) The binding affinity (IC50) of a compound for the receptor was calculated by computerized nonlinear regression analysis (GraphPad Prism Program, San Diego, USA) using 7-8 varied concentrations of the compound run in duplicate tubes.

[2] = biological target: T2, human recombinant 5-HT2C receptor (Homo sapiens, UniProt P28335); assay: Binding affinity for serotonin 5-HT2C receptor ([3H]Mesulergine); conditions: CHO-K1 membranes, 1.3 nM [3H]Mesulergine
T2 construct: purchased PerkinElmer
T2 sequence (P28335 33-458): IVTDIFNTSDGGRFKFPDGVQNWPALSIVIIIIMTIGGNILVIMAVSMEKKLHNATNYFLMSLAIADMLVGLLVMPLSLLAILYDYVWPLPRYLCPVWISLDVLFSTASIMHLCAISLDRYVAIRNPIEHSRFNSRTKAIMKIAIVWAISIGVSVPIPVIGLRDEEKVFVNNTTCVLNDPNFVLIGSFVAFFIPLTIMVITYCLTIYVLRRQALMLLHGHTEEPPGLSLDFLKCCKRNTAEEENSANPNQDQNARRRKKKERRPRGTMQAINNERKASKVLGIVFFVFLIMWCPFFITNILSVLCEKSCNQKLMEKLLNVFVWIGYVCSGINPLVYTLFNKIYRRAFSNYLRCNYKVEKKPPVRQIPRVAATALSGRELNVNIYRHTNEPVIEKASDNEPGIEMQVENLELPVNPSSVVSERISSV
Method: Receptor binding affinities of the compounds for serotonin receptors were measured by the method described in the literature [Park W K et al., Pharmacol Biochem Behav.
as §1
Nonspecific binding was determined using 100 uM mianserin. The incubations were performed for 60 min at 27, and these were terminated by rapid filtration through filtermate. A glass fiber filter presoaked in 0.5% PEI.

[3] = biological target: T3, human serotonin transporter (Homo sapiens, UniProt P31645); assay: Binding affinity for serotonin transporter ([3H]Imipramine); conditions: HEK-293 membranes, 2 nM [3H]Imipramine
T3 construct: purchased PerkinElmer; host or cells: HEK-293
T3 sequence (P31645 whole entry): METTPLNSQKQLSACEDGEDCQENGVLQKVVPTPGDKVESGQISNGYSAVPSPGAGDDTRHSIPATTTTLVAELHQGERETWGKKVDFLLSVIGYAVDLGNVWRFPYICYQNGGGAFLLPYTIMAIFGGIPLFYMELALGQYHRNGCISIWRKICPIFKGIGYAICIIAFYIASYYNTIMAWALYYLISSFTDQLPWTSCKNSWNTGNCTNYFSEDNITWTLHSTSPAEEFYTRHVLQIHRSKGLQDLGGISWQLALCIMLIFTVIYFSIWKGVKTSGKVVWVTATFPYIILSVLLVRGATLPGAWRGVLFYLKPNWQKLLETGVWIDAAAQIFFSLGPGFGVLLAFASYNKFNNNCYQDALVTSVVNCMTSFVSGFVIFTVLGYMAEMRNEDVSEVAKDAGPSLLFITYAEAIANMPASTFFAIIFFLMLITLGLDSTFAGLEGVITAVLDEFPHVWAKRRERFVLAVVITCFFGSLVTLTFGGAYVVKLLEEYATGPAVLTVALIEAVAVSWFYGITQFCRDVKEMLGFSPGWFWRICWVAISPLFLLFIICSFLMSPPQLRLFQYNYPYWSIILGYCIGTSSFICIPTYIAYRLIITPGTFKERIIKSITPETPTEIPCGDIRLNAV
Method: For serotonin transporter binding assays, a reaction mixture with a final volume of 0.25 ml was prepared by mixing a test compound, human serotonin transporter membrane expressed in HEK-293 cells (PerkinElmer, 5 ug/well), [^3H]Imipramine (PerkinElmer, 2 nM) and 50 mM Tris-HCl (pH 7.4) buffer containing 120 mM NaCl and 5 mM KCl. The reaction mixture was incubated for 30 min at 27, and harvested through filtermate. A glass fiber filter presoaked in 0.5% PEI with ice cold 50 mM Tris-HCl buffer (pH 7.4) containing 0.9% NaCl.

SMILES	IC50 [1] [nM]	IC50 [2] [nM]	IC50 [3] [nM]
Cc1cccc(N2CCN(CCCCNC(=O)c3cc(-c4ccc(Cl)cc4)[nH]c3C)CC2)c1C [Example 46, 5-(4-chlorophenyl)-N-(4-(4-(2,3-dimethylphenyl)piperazin-1-yl)butyl)-2-methyl-1H-pyrrole-3-carboxamide hydrochloride]	32	88	98
Cc1[nH]c(-c2ccc(Cl)cc2)cc1C(=O)NCCCCN1CCN(c2cccc(Cl)c2Cl)CC1 [Example 47, 5-(4-chlorophenyl)-N-(4-(4-(2,3-dichlorophenyl)piperazin-1-yl)butyl)-2-methyl-1H-pyrrole-3-carboxamide hydrochloride]	56	62	122
Cc1cccc(N2CCN(CCCNC(=O)c3cc(-c4ccc(Cl)cc4)n(C)c3C)CC2)c1C [Example 61, 5-(4-chlorophenyl)-N-(3-(4-(2,3-dimethylphenyl)piperazin-1-yl)propyl)-1,2-dimethyl-1H-pyrrole-3-carboxamide hydrochloride]	213	129	129
Cc1c(C(=O)NCCCN2CCN(c3cccc(Cl)c3Cl)CC2)cc(-c2ccc(Cl)cc2)n1C [Example 62, 5-(4-chlorophenyl)-N-(3-(4-(2,3-dichlorophenyl)piperazin-1-yl)propyl)-1,2-dimethyl-1H-pyrrole-3-carboxamide hydrochloride]	232	39	733
CCn1c(-c2ccc(Cl)cc2)cc(C(=O)NCCCN2CCN(c3cccc(C)c3C)CC2)c1C [Example 63, 5-(4-chlorophenyl)-N-(3-(4-(2,3-dimethylphenyl)piperazin-1-yl)propyl)-1-ethyl-2-methyl-1H-pyrrole-3-carboxamide hydrochloride]	151	39	93
CCCn1c(-c2ccc(Cl)cc2)cc(C(=O)NCCCN2CCN(c3cccc(C)c3C)CC2)c1C [Example 65, 5-(4-chlorophenyl)-N-(3-(4-(2,3-dimethylphenyl)piperazin-1-yl)propyl)-2-methyl-1-propyl-1H-pyrrole-3-carboxamide hydrochloride]	192	26	131
CCCn1c(-c2ccc(Cl)cc2)cc(C(=O)NCCCN2CCN(c3cccc(Cl)c3Cl)CC2)c1C [Example 66, 5-(4-chlorophenyl)-N-(3-(4-(2,3-dichlorophenyl)piperazin-1-yl)propyl)-2-methyl-1-propyl-1H-pyrrole-3-carboxamide hydrochloride]	333	41	1160
Cc1[nH]c(-c2ccc(Cl)cc2)cc1C(=O)NCCN1CCN(c2cccc(Cl)c2Cl)CC1 [Example 67, 5-(4-chlorophenyl)-N-(2-(4-(2,3-dichlorophenyl)piperazin-1-ypethyl)-2-methyl-1H-pyrrole-3-carboxamide hydrochloride]	100	23	233
CCCCCCn1c(-c2ccccc2)cc(C(=O)NCCCN2CCN(c3cccc(Cl)c3Cl)CC2)c1C [Example 72, N-(3-(4-(2,3-dichlorophenyl)piperazin-1-yl)propyl)-1-hexyl-2-methyl-5-phenyl-1H-pyrrole-3-carboxamide hydrochloride]	300	68	1190
Cc1[nH]c(-c2ccccc2)c(C)c1C(=O)NCCN1CCN(c2cccc(Cl)c2Cl)CC1 [Example 76, N-(2-(4-(2,3-dichlorophenyl)piperazin-1-yl)ethyl)-2,4-dimethyl-5-phenyl-1H-pyrrole-3-carboxamide hydrochloride]	37	13	162
Cc1[nH]c(-c2ccccc2)c(C)c1C(=O)NCCCN1CCN(c2cccc(Cl)c2Cl)CC1 [Example 77, N-(3-(4-(2,3-dichlorophenyl)piperazin-1-yl)propyl)-2,4-dimethyl-5-phenyl-1H-pyrrole-3-carboxamide hydrochloride]	39	16	36
Cc1[nH]c(-c2ccccc2)c(C)c1C(=O)NCCCCN1CCN(c2cccc(Cl)c2Cl)CC1 [Example 78, N-(4-(4-(2,3-dichlorophenyl)piperazin-1-yl)butyl)-2,4-dimethyl-5-phenyl-1H-pyrrole-3-carboxamide hydrochloride]	19	10	74
Cc1c(C(=O)NCCCN2CCN(c3cccc(Cl)c3Cl)CC2)c(C)n(C)c1-c1ccccc1 [Example 79, N-(3-(4-(2,3-dichlorophenyl)piperazin-1-yl)propyl)-1,2,4-trimethyl-5-phenyl-1H-pyrrole-3-carboxamide hydrochloride]	33	16	80
CCn1c(C)c(C(=O)NCCCN2CCN(c3cccc(Cl)c3Cl)CC2)c(C)c1-c1ccccc1 [Example 80, N-(3-(4-(2,3-dichlorophenyl)piperazin-1-yl)propyl)-1-ethyl-2,4-dimethyl-5-phenyl-1H-pyrrole-3-carboxamide hydrochloride]	47	42	97

Further lines, results first:

IC50 [1] [nM]	IC50 [2] [nM]	IC50 [3] [nM]	SMILES
100	96	85	CCn1c(-c2ccccc2)cc(C(=O)NCCN2CCN(c3cccc(Cl)c3Cl)CC2)c1C [Example 49, N-(2-(4-(2,3-dichlorophenyl)piperazin-1-yl)ethyl)-1-ethyl-2-methyl-5-phenyl-1H-pyrrole-3-carboxamide hydrochloride]
292	24	176	Cc1c(C(=O)NCCN2CCN(c3cccc(Cl)c3Cl)CC2)cc(-c2ccc(Cl)cc2)n1C [Example 68, 5-(4-chlorophenyl)-N-(2-(4-(2,3-dichlorophenyl)piperazin-1-yl)ethyl)-1,2-dimethyl-1H-pyrrole-3-carboxamide hydrochloride]
412	29	220	CCn1c(-c2ccc(Cl)cc2)cc(C(=O)NCCN2CCN(c3cccc(Cl)c3Cl)CC2)c1C [Example 69, 5-(4-chlorophenyl)-N-(2-(4-(2,3-dichlorophenyl)piperazin-1-ypethyl)-1-ethyl-2-methyl-1H-pyrrole-3-carboxamide hydrochloride]
188	32	642	CCCCn1c(-c2ccccc2)cc(C(=O)NCCCN2CCN(c3cccc(Cl)c3Cl)CC2)c1C [Example 71, 1-butyl-N-(3-(4-(2,3-dichlorophenyl)piperazin-1-yl)propyl)-2-methyl-5-phenyl-1H-pyrrole-3-carboxamide hydrochloride]
37	201	204	COc1ccc(-c2cc(C(=O)NCCCN3CCN(c4cccc(Cl)c4Cl)CC3)c(C)[nH]2)cc1 [Example 73, N-(3-(4-(2,3-dichlorophenyl)piperazin-1-yl)propyl)-5-(4-methoxyphenyl)-2-methyl-1H-pyrrole-3-carboxamide hydrochloride]
108	101	76.2	COc1ccc(-c2cc(C(=O)NCCCN3CCN(c4cccc(Cl)c4Cl)CC3)c(C)n2C)cc1 [Example 74, N-(3-(4-(2,3-dichlorophenyl)piperazin-1-yl)propyl)-5-(4-methoxyphenyl)-1,2-dimethyl-1H-pyrrole-3-carboxamide hydrochloride]
141	35	100	CCn1c(-c2ccc(OC)cc2)cc(C(=O)NCCCN2CCN(c3cccc(Cl)c3Cl)CC2)c1C [Example 75, N-(3-(4-(2,3-dichlorophenyl)piperazin-1-yl)propyl)-1-ethyl-5-(4-methoxyphenyl)-2-methyl-1H-pyrrole-3-carboxamide hydrochloride]
